According to ChEMBL document CHEMBL1255230, “Chemical inhibitor of nonapoptotic cell death with therapeutic potential for ischemic brain injury” (Nat Chem Biol, 2005):
Calls of active or inactive are those of the source. The calls are words filed in the database; no cut-off is given here.

What was measured:
Jurkat [1] = test: Effect on cell cycle in human Jurkat cells deficient in FADD assessed as cells in G1 phase in presence of TNFalpha relative to control; format: functional
Jurkat [2] = test: Inhibition of necrosis in human Jurkat cells assessed as organelle swelling by bright field microscopy in presence of FasL, CHX and zVAD-fmk; format: functional, cell-based
[3] = Inhibition of death receptor signaling mediated necrotic cell death in human HL60 cells assessed as cell viability in presence of TNFalpha and zVAD.fmk; format: cell-based; conditions: HL-60
[4] = Inhibition of death receptor signaling mediated necrotic cell death in mouse 3T3 cells assessed as cell viability after 24 hrs by ATP based viability assay in presence of TNFalpha and zVAD.fmk; conditions: NIH3T3
[5] = Inhibition of death receptor signaling mediated necrotic cell death in rat IEC18 cells assessed as cell viability in presence of TNFalpha and zVAD.fmk; format: cell-based
Jurkat [6] = test: Effect on cell cycle in human Jurkat cells deficient in FADD assessed as cells in S phase relative to control; format: functional
Jurkat [7] = test: Inhibition of necrosis in human Jurkat cells assessed as early loss of plasma membrane integrity by bright field microscopy in presence of FasL, CHX and zVAD-fmk; format: functional, cell-based
[8] = Inhibition of death receptor signaling mediated necroptotic cell death in human Jurkat cell deficient in FADD assessed as inhibition of plasma membrane permeability after 24 hrs by in presence of TNFalpha; format: cell-based
Jurkat [9] = test: Inhibition of necrosis in human Jurkat cells deficient in FADD assessed as inhibition of early loss of plasma membrane integrity by bright field microscopy in presence of TNFalpha; format: functional, cell-based
[10] = Inhibition of death receptor signaling mediated necroptotic cell death in mouse 3T3 cells assessed as decreased levels of PE-conjugated autophagy marker LC3-II after 24 hrs by Western blot method in presence of FasL and zVAD-fmk; format: cell-based; conditions: NIH3T3
NIH3T3 [11] = test: Effect on morphology of endoplasmic reticulum in mouse 3T3 cells after 24 hrs by anti-KDEL immunofluorescence in presence of TNFalpha and zVAD-fmk; format: functional, cell-based
Jurkat [12] = test: Effect on cell cycle in human Jurkat cells deficient in FADD assessed as cells in sub-G1 phase relative to control; format: functional
[13] = Inhibition of death receptor signaling mediated necroptotic cell death in human U937 cell assessed as cell viability after 72 hrs by ATP based viability assay in presence of TNFalpha and zVAD.fmk; conditions: U-937
Jurkat [14] = test: Inhibition of necrosis in human Jurkat cells deficient in FADD assessed as inhibition of appearance of translucent cytosol in presence of TNFalpha; format: functional, cell-based
Jurkat [15] = test: Inhibition of necrosis in human Jurkat cells deficient in FADD assessed as inhibition of organelle swelling by bright field microscopy in presence of TNFalpha; format: functional, cell-based
Jurkat [16] = test: Antiproliferative activity against human Jurkat cells; format: functional, cell-based
[17] = Inhibition of death receptor signaling mediated necroptotic cell death in human Jurkat cells deficient in FADD and expressing RIP kinase assessed as cell viability after 48 hrs by FACS in presence of AP1510; format: cell-based
Jurkat [18] = test: Effect on cell cycle in human Jurkat cells assessed as cells in G1 phase; format: functional, cell-based
[19] = Inhibition of death receptor signaling mediated necroptotic cell death in mouse L929 cells assessed as decreased levels of PE-conjugated autophagy marker LC3-II after 24 hrs by Western blot method in presence of TNFalpha; format: cell-based
NIH3T3 [20] = test: Effect on morphology of golgi apparatus in mouse 3T3 cells after 24 hrs by anti-giantin immunofluorescence in presence of TNFalpha and zVAD-fmk; format: functional, cell-based
U-937 = test: Inhibition of oxidative stress induced necrosis in human U937 cells after 24 hrs in presence of menadione; format: functional, cell-based
Jurkat [21] = test: Effect on cell cycle in human Jurkat cells assessed as cells in S phase; format: functional, cell-based
Jurkat [22] = test: Effect on mitochondrial membrane potential in human Jurkat cells; format: functional, cell-based
Jurkat [23] = test: increase in intracellular ROS level in human Jurkat cells; format: functional, cell-based
Jurkat [24] = test: Effect on cell cycle in human Jurkat cells deficient in FADD assessed as cells in sub-G1 phase in presence of TNFalpha relative to control; format: functional
[25] = Inhibition of death receptor signaling mediated necrotic cell death in SV40 transformed mouse MEF cells assessed as cell viability after 16 hrs by ATP based viability assay in presence of TNFalpha, CHX and zVAD.fmk
Jurkat [26] = test: Effect on changes in cell size in human Jurkat cells; format: functional, cell-based
[27] = Inhibition of death receptor signaling mediated necroptotic cell death in human Jurkat cell deficient in FADD assessed as inhibition of mitochondrial dysfunction after 24 hrs by in presence of TNFalpha; format: cell-based
[28] = Inhibition of death receptor signaling mediated necrotic cell death in mouse 3T3 cells assessed as cell viability after 24 hrs by ATP based viability assay in presence of FasL and zVAD.fmk; conditions: NIH3T3
[29] = Inhibition of death receptor signaling mediated necroptotic cell death in human Jurkat cell deficient in FADD assessed as cytoprotection after 30 hrs by in presence of TNFalpha; format: cell-based
[30] = Inhibition of death receptor signaling mediated apoptosis in human Jurkat cell assessed as inhibition of plasma membrane permeability after 24 hrs by in presence of FasL, CHX and zVAD.fmk; format: cell-based
[31] = Inhibition of death receptor signaling mediated apoptosis in human Jurkat cell assessed as cytoprotection after 30 hrs by in presence of FasL, CHX and zVAD.fmk; format: cell-based
[32] = Inhibition of death receptor signaling mediated apoptosis in human Jurkat cell assessed as inhibition of mitochondrial dysfunction after 24 hrs by in presence of FasL, CHX and zVAD.fmk; format: cell-based
[33] = Inhibition of death receptor signaling mediated necroptotic cell death in human U937 cells assessed as cell viability after 48 hrs by ATP based viability assay in presence of TNFalpha and zVAD-fmk; conditions: U-937
Jurkat [34] = test: Inhibition of necrosis in human Jurkat cells assessed as appearance of translucent cytosol in presence of FasL, CHX and zVAD-fmk; format: functional, cell-based
[35] = Inhibition of death receptor signaling mediated necroptotic cell death in mouse 3T3 cells assessed as decreased levels of PE-conjugated autophagy marker LC3-II after 24 hrs by Western blot method in presence of rapamycin; format: cell-based; conditions: NIH3T3
[36] = Inhibition of death receptor signaling mediated necroptotic cell death in human Jurkat cells deficient in FADD and expressing RIP kinase domain assessed as cell viability after 48 hrs by FACS in presence of AP1510, zVAD-fmk; format: cell-based
[37] = Inhibition of death receptor signaling mediated necroptotic cell death in human Jurkat cells deficient in FADD and expressing RIP kinase assessed as cell viability after 48 hrs by FACS in presence of AP1510, zVAD-fmk; format: cell-based
Jurkat [38] = test: Effect on ATP level in human Jurkat cells; format: functional, cell-based
Jurkat [39] = test: Effect on cell cycle in human Jurkat cells deficient in FADD assessed as cells in G2/M phase relative to control; format: functional
Jurkat [40] = test: Effect on cell cycle in human Jurkat cells deficient in FADD assessed as cells in G1 phase relative to control; format: functional
[41] = Inhibition of death receptor signaling mediated necroptotic cell death in human Jurkat cells deficient in FADD and expressing RIP kinase domain assessed as cell viability after 48 hrs by FACS in presence of AP1510; format: cell-based

In the case of CN1C(=O)C(Cc2c[nH]c3ccccc23)NC1=S (configuration not stated) [NECROSTATIN], the Activity (Jurkat [1]) is reported as 43.1%, the inhibition (Jurkat [2]) is reported as “Active” and the inhibition [3] is reported as “Active”. For the same compound, the inhibition [4] was “Active”, the inhibition [5] was “Active” and the Activity (Jurkat [6]) was 45.1%. For the same compound, the inhibition (Jurkat [7]) was “Active”, the inhibition [8] was “Active” and the inhibition (Jurkat [9]) was “Active”. For the same compound, the inhibition [10] was “Active”, the Activity (NIH3T3 [11]) was “inactive” and the Activity (Jurkat [12]) was 0.7%. For the same compound, the inhibition [13] was “Dose-dependent effect”, the inhibition (Jurkat [14]) was “Active” and the inhibition (Jurkat [15]) was “Active”. The Activity (Jurkat [16]) was “inactive”, the inhibition [17] was “Active” and the Activity (Jurkat [18]) was “inactive”. The inhibition [19] was “Active”, the Activity (NIH3T3 [20]) was “inactive” and the inhibition (U-937) was “inactive”. The Activity (Jurkat [21]) was “inactive”, the Activity (Jurkat [22]) was “inactive” and the Activity (Jurkat [23]) was “inactive”. The Activity (Jurkat [24]) was 0.7%, the inhibition [25] was “Active” and the Activity (Jurkat [26]) was “inactive”. For the same compound, the inhibition [27] was “Active”, the inhibition [28] was “Active” and the inhibition [29] was “Active”. For the same compound, the inhibition [30] was “Active”, the inhibition [31] was “inactive” and the inhibition [32] was “Active”. For the same compound, the inhibition [33] was “Active”, the inhibition (Jurkat [34]) was “Active” and the inhibition [35] was “Active”. For the same compound, the inhibition [36] was “Active”, the inhibition [37] was “Active” and the Activity (Jurkat [38]) was “inactive”. For the same compound, the Activity (Jurkat [39]) was 13.5%, the Activity (Jurkat [40]) was 41.5% and the inhibition [41] was “Active”.
